Laboratory results taken from ChEMBL document CHEMBL5674860, “Optimized Dual-Glo Assay to identify co-culture-induced drug vulnerabilities in 3D CRC models” (2024).

How the values were obtained:
Format in all cases: functional, Homo sapiens
Parameters in all cases: dose or concentration left out as unconfirmed
Colon cancer organoid [1] = experiment: Optimized Dual-Glo assay to identify co-culture induced drug vulnerabilities using donated chemical probes and chemogenomics kinase set in O20 CRC organoid and F20 CAF mono and co-culture. […] Cell viability is reported both mono and co-culture models.
Colon cancer organoid [2] = experiment: Optimized Dual-Glo assay to identify co-culture induced drug vulnerabilities using donated chemical probes and chemogenomics kinase set in O14 CRC organoid and F14 CAF mono and co-culture. […] Cell viability is reported both mono and co-culture models.
Colon cancer organoid [3] = experiment: Optimized Dual-Glo assay to identify co-culture induced drug vulnerabilities using donated chemical probes and chemogenomics kinase set in O06 CRC organoid and F06 CAF mono and co-culture. […] Cell viability is reported both mono and co-culture models.
[4] = Culture type Co-Culture, Transduced with Lucferase2-P2A-EGFP lentivirus
[5] = Culture type Co-Culture, Transduced with Renilla-dsRed lentivirus
[6] = Culture type Mono-Culture, Transduced with Lucferase2-P2A-EGFP lentivirus
[7] = Culture type Mono-Culture, Transduced with Renilla-dsRed lentivirus

Structure (SMILES)	Cell Viability (Colon cancer organoid [1]; [4]) [%]	Cell Viability (Colon cancer organoid [1]; [5]) [%]	Cell Viability (Colon cancer organoid [1]; [6]) [%]	Cell Viability (Colon cancer organoid [1]; [7]) [%]	Cell Viability (Colon cancer organoid [2]; [4]) [%]	Cell Viability (Colon cancer organoid [2]; [5]) [%]	Cell Viability (Colon cancer organoid [2]; [6]) [%]	Cell Viability (Colon cancer organoid [2]; [7]) [%]	Cell Viability (Colon cancer organoid [3]; [4]) [%]	Cell Viability (Colon cancer organoid [3]; [5]) [%]	Cell Viability (Colon cancer organoid [3]; [6]) [%]	Cell Viability (Colon cancer organoid [3]; [7]) [%]
CN1CCN(c2cnc3c(C4CCN(C(=O)c5ccc(OC(F)(F)F)cc5N)CC4)ncnc3c2)CC1 [BAY-885]	78.3205	141.163	69.7079	80.8249	92.1967	106.052	52.9657	104.304	128.922	132.533	82.0167	90.7895
Cc1c(NC(=O)c2ccc(C(C)(C)C)cc2)cccc1-c1cn(C)c(=O)c(Nc2ccc(C(=O)N3CCOCC3)cc2)n1	109.579	88.3582	122.68	92.088	85.4676	81.7664	100.184	91.8671	105.279	113.435	83.7541	97.4758
Cc1cnc(Nc2ccc(F)cc2Cl)nc1-c1c[nH]c(C(=O)N[C@H](CO)c2cccc(Cl)c2)c1	6.951	113.857	5.763	41.0342	10.9302	34.4005	7.352	19.5504	51.8597	63.6391	9.819	57.8689
CCOCCn1cc(C(=O)Nc2ccc(-n3nc(-c4cccnc4)cc3C(F)(F)F)cn2)ccc1=O [BI 1935]	76.3275	148.205	94.4512	98.9549	119.66	103.733	123.828	100.697	92.9458	113.636	108.149	105.749
CCN1CCN(c2ccc(Nc3cc(N(C)C(=O)Nc4c(Cl)c(OC)cc(OC)c4Cl)ncn3)cc2)CC1 [INFIGRATINIB]	101.104	52.242	73.2403	44.318	13.9667	230.084	45.8266	126.071	0.6967	125.024	12.6822	113.181
CN(C)C(=O)/C(C#N)=C/c1ccc(-c2nc3cnc4[nH]ccc4c3n2C2CCCCC2)o1	75.2682	130.215	113.424	104.709	115.273	92.8472	120.035	91.5278	95.2227	96.9669	138.382	96.6584
Cn1cc(-c2ccc3occ(-c4cccc(-c5ccncc5)c4)c3n2)cn1	65.7439	132.411	69.6903	72.543	113.323	67.5057	72.9931	81.4959	91.2802	94.5664	138.621	110.377
Cc1noc(C)c1-c1cnc2c(-c3ccc(C(=O)O)cc3)cn([C@@H](C)c3ccccn3)c2c1 [PLX-51107]	17.6563	177.825	24.073	120.563	32.5617	348.195	30.1969	207.472	26.8486	312.702	23.3668	265.011
CC[C@H](CO)Nc1nc(NCc2ccccc2)c2ncn(C(C)C)c2n1 [SELICICLIB]	126.322	75.3934	94.0529	97.9285	135.109	107.454	106.101	84.912	93.234	112.199	108.084	105.93
